Source: US10253085B2, “CD31 peptides for the treatment of thrombotic or autoimmune disorders” (INSERM (INSTITUT NATIONAL DE LA SANTE ET DE LA RECHERCHE …, priority 2008, dated 2019)
“Also recorded” adds a separate entry of the source.

Assays:
T-cell activation = experiment: In vitro inhibition of T-cell activation (summary statements); type: cell-based
[1] = tested on: C57BL/6J mice immunized with MOG35-55 peptide; experiment: Experimental Autoimmune Encephalomyelitis (EAE) model; type: in vivo, mouse
Experimental: Twelve-week old female C57BL/6J mice were immunized with 300 μg of MOG35-55 peptide emulsified in Complete Freund's Adjuvant 1:1 by volume containing 800 μg of nonviable desiccated Mycobacterium tuberculosis H37RA. A final volume of 200 μl of the emulsion was injected subcutaneously at 4 sites (50 μl/site) over the flanks. In addition, 300 ng of Pertussis toxin was injected intravenously (retro-orbital plexus) on the same day and 2 days later. Clinical signs of EAE ware assessed daily by the following scoring system: 0, no signs; 1, hindlimb weakness; 2, hindlimb weakness and tail paralysis; 3, hindlimb and tail paralysis; 4, hindlimb and tail paralysis and forelimb weakness; 5, moribund state; and 6, death. The peak (waxing phase) occured around day 21. In this C57BL/6J mouse model, there was no waning phase as assessed in our laboratory up to day 41.
The experiment was carried out with ten mice per group. The mice of each group were treating with either of: • PBS; • PepReg (SEQ ID NO: 3); or • PepScra (SEQ ID NO: 14).
The dosing was of 50 μg of peptide per mice and per day (i.e. about 2 mg/Kg per day). The peptide was administered by a subcutaneous injection.

[2] = tested on: BALB/c mice primed with TNCB; experiment: Delayed type hypersensitivity (DTH) suppression model; type: in vivo, mouse; details: single subcutaneous administration; peptide 10, 50, 100 μM; scramble 100 μM
Experimental: Delayed type hypersensitivity (DTH) suppression was evaluated as described in the “Current Protocols in Immunology (2001) 4.0.1-4.0.2 Unit 4.2”. Briefly, TNCB (2-chloro-1,3,5-trinitrobenzene, Fluka #79874) was dissolved in acetone/olive oil (1:1 v/v) at a concentration of 10 mg/ml. BALB/c mice (n=6/group) were primed by painting the shaved regions of the abdomen a with a total 0.2 ml of the preparation (n=6/group). The experiment included 3 groups for peptide 551-574 (10, 50, 100 μM) and 1 group treated with scramble peptide at 100 μM). Five days after priming, 10 μl of the TNCB-solvent mixture was painted on the right pinna, 30 minutes after subcutaneous (interscapolar) administration of the peptide 551-574 or the scramble peptide. Ear thickness increases were calculated by subtracting the thickness of the right and the left pinna of each mouse (right-left/left×100), measured at 24 h with a dial caliper (“Pocotest”, Kroeplin Längenmesstechnick). The measure was performed 5 times on each ear and averaged for further analysis. The immunosuppressive effect of the peptide was calculated as % suppression=(1−ΔTE/ΔTS)×100, where ΔT=(ear thickness 24 hr after elicitation)−(baseline ear thickness), […]. Data are expressed as mean±SEM.

[3] = tested on: spleen cells from C57Bl/6 (CD31^+/+) mice; experiment: Proliferation in response to TCR stimulation, CD31+/+ spleen cells; type: cell-based, mouse; details: peptide 25, 50, 100 μM; scramble peptide 100 μM
Experimental: CD8^+ T cell-mediated cytolytic activity against allogeneic mouse aortic smooth muscle cells and measurement of macrophage gelatinase (MMP-2/9) activity were performed as previously described for human cells in Caligiuri et al. (2006 Arterioscler Thromb Vasc Biol 26:618-623) using kits and reagents from Invitrogen. Briefly, primary cultures of FVB/N mouse aorta smooth muscle cells were labelled with the lipophylic tracer DIO (green) and co-cultured for 3 hours with CD8+ T cell-enriched spleen cells from C57Bl/6 mice (n=3 scramble peptide and n=3 peptide 551-574, 50 μM). Cytolysis was evaluated by intracellular accumulation of propidium iodide (PI). Cells were analysed by flow cytometry and the % of cytolysis was calculated by expressing the number of dead (PI+) cells among the target (DIO+) cells. Intracellular MMP-2/9 (gelatinase) activity was measured by flow cytometry in 7-day bone-marrow derived macrophages from C57Bl/6 mice (n=3 scramble peptide and n=3 peptide 551-574, 50 μM) three hours after the incorporation of OregonGreen® gelatine (MFI). T-cell proliferation was performed using either human peripheral blood mononuclear cells of spleen cells from C57Bl/6 (CD31^+/+) and CD31^−/− mice (Charles River France) as previously described (Caligiuri et al. 2005 Arterioscler Thromb Vasc Biol 25:1659-1664). Briefly, cells were plated in triplicates at 0.2×10^6 cells/well in a U bottom 96-well plate in complete medium (RPMI 1640, 1% pyruvate, 1% glutamine, 1% penicillin-streptomicyne-fungizone, 10% decomplemented fetal calf serum, all from Invitrogen) containing 1 μg/ml anti-mouse CD3/CD28 or 5 μg/ml anti-human CD3 antibodies (BD) as appropriate. CD31 (551-574) and scramble peptide at 25, 50 and 100 μM final concentration were deposited in the wells just before cell plating. Plated cells were cultured for 72 hours in 5% CO2 at 37° C. (^3H) thymidine (0.5 μCi/well) was added for the last 16 hours and proliferation evaluated using a Tomtec harvester and analysis on a Wallac micro beta counter. Data are expressed as mean±SEM of cpm in triplicates.

[4] = tested on: CD4+ cells from C57Bl6 mice; experiment: CD4+ T cell activation, early activation marker CD69 by flow cytometry; type: cell-based, mouse; details: 18 hours culture
Experimental: Alternatively, the T-cell proliferation assay may comprise comparing expression levels of the early activation marker CD69 in T-cells cultured either in the presence or in the absence of the compound to be tested. This assay may for example be performed as follows: • providing purified CD4+ cells (e.g. purified from C57B16 mice); • stimulating said CD4+ cells by addition of anti-CD3 purified antibodies and bone marrow derived dendritic cells; • culturing the cells for about 18 hours; and • analyzing said cells for the expression of the early activation marker CD69, e.g. by flow cytometry; and • comparing CD69 expression in the presence of the compound to be tested.
The immunosuppressive properties of PepReg (10aa) vs the 23 aa parent peptide were evaluated in vitro. Negatively purified CD4+ cells from C57Bl6 mice were stimulated by soluble anti-CD3 purified antibodies and bone marrow derived dendritic cells. Cells from triplicate wells were analyzed for the expression of the early activation marker CD69 after 18 hours culture in complete RPMI medium supplemented with 10% fetal calf serum.

T cell proliferation = experiment: Suppression of T cell proliferation by [H3] thymidin incorporation, long culture; type: cell-based, mouse; details: culture at 37° C. in 10% serum
[5] = associated with disease protection

## LAPWKK (mouse or human-derived CD31 peptide) [SEQ ID NO: 2]
T-cell activation
  inhibition of T-cell activation: capable of inhibiting T-cell activation

## scrambled peptide: scramble peptide of SEQ ID NO: 14 used as control for PepReg; sequence not printed (WPKLRKFVAV; scramble peptide) [reference compound]
[1]; 50 μg per mice per day subcutaneous
  beneficial effect in EAE model: beneficial, although less than PepReg

## NH2 - SMPAVRSRFSATSLVTLKSRWPK -COOH (H-SMPAVRSRFSATSLVTLKSRWPK-OH) [scramble peptide, scramble peptide used as control for the 23-mer, reference compound]
[2]
  suppression of distal recall of a hapten-elicited specific immune response (ear thickness): ineffective
[3]
  proliferation of CD31+/+ spleen cells in response to TCR stimulation: No effect; also recorded: ineffective

## VRVFLAPWKK (mouse-derived CD31 peptide) [PepReg, ten COOH terminal amino acids of mouse CD31 peptide]
T-cell activation
  inhibition of T-cell activation: capable of inhibiting T-cell activation
[4]
  dose at which suppression of CD69 expression was observed: 50 µg/mL
[4]; anti-CD3 and dendritic cells
  suppression of T cell activation (percentage of CD4 cells expressing CD69): at least as efficient as the 23aa peptide
[1]; [5]
  infiltration of IL17+ and IFNg+ T helper CD4+ cells in the central nervous system: reduced infiltration
  proportion of regulatory CD25+/foxP3 CD4+ cells in the central nervous system: increased proportion
[1]; plateau phase (Days 21 through to 35), 50 μg per mice per day subcutaneous
  clinical score of EAE activity (paralysis level): reducing disease extension
[1]; waxing phase (Day 15), 50 μg per mice per day subcutaneous
  clinical score of EAE activity (paralysis level): arresting disease development
T cell proliferation
  persistence of suppression of T cell proliferation: up to 7 days
